Laboratory results: US5756538A, “Flavonoid and biflavonoid derivatives, their pharmaceutical compositions, their anxiolytic activity” (University of Strathclyde, priority 1993, dated 1998)
Like-named read-outs stand apart in the source and are kept apart here.

Experiments:
[1] = Medina et al. 1990; cited from earlier work
mice [2] = assay: Holeboard test (exploratory activity, sedation); assay type: in vivo, mice (male CF1)
Experimental: (b) Holeboard Test: consisted of a wood box (60×60×30 cm) with four 2 cm diameter holes equidistant in the floor. The number of head-dips and the time spent head-dipping were counted during 5 min. An increase in the number and the time spent head-dipping implies a greater exploratory activity.
(§1) All the injections were given intraperitoneally (i.p.). […] Testing was carried out `blind`. All data were submitted to analysis of variance (ANOVA).

[3] = tested on: locus coeruleus noradrenaline; assay: Noradrenaline levels in locus coeruleus after immobilization stress; assay type: in vivo, rats; conditions: 1 mg/kg i.p., 30 min before 90-min stress session
Experimental: Rats were submitted to a 90-minute immobilization stress session in a plastic cylinder. The locus coeruleus was dissected out after killing by decapitation and noradrenaline assessed by HPLC with electrochemical detection. Doses were 1 mg/kg for each substance, injected i.p., 30 minutes before the stress session.

mice [4] = assay: Elevated plus maze (anxiety); assay type: in vivo, mice (male CF1); conditions: for Total arm entries: 5 min test, mean ± S.E.M.
Experimental: (a) Elevated Plus Maze: consisted of 4 perpendicularly disposed wood arms (20×5 cm; two had 35 cm high wood walls, and two were open) linked by a central 10×10 cm square. The maze was suspended 50 cm from the room floor. Animals were placed on the central part of the maze facing a closed arm. This test has been widely validated to measure anxiety in rodents. The number of entries into and the time spent in the open and closed arms were counted during 5 min. […] Total exploratory activity (number of entries in both arms) was also determined.
as §1

mice [5] = assay: Horizontal wire test (muscle relaxation); assay type: in vivo, mice (male CF1)
Experimental: (d) Horizontal Wire Test: It consisted of an horizontally strung wire (1 mm diameter, 15 cm long), placed at 20 cm from the table. Mice were lifted by the tail, allowed to grasp the wire with their forepaws and released. […] After two trials, performed at 5 min. intervals, the test took place. A myorelaxant drug, like diazepam at high doses, will impair the ability of mice to grasp the wire. Generally, this state of muscle relaxation is commonly associated with sedation.
as §1
The test took place after two trials, executed after a 5 min interval.

mice [6] = assay: Locomotor activity test (OPTO-VARIMEX); conditions: 0.6-1 mg/kg i.p., 20 min after injection
Experimental: Male CF1 mice from our breeding stock weighing 28-35 g were used. The animals were placed in groups of 10-12 with free access to water and food, and maintained on a 12 h/12 h day-night cycle.
Diazepam (DZ; Hoffman-La Roche) and the flavonoids were dissolved in DMSO 40%, NaOH 0.1N (7:3: v/v) at pH 8.2 Control animals were injected with the same vehicle (VEH). RO 15-1788 (Hoffmann-La Roche) was suspended in DMSO 10%, propyleneglycol 10% in distilled water.
(c) Locomotor Activity Test: we used an OPTO-VARIMEX apparatus consisting of a glass box (36×15×20 cm) and two lateral bars with 15 light beams (0.32 cm diameter, beam spacing 2.65 cm). The apparatus detects automatically all the mouse movements, and discriminates between total and ambulatory activity. The locomotor activity (number of movements across the beams) was counted during 5 min. An increase in the number of transitions through the beams reflects an augmented locomotor activity.
The general procedure for all the tests is as follows: mice were injected with vehicle or the drug solution 20 min before the beginning of the test and put into another home cage. Ro 15-1788, a specific BZD receptor antagonist was injected 10 min before the tested drug. All the injections were given intraperitoneally (i.p.). Control mice were tested in each session, in parallel with those animals receiving the test drug or diazepam. Testing was carried out `blind`. All data were submitted to analysis of variance (ANOVA). Post-hoc comparisons between individual treatments and controls were made using Dunnett's t-test.
FIGS. 15, 16, 17 and 18 show ambulatory locomoter activity counts during a 5 min. test session in an OPTO-Varimex apparatus, 20 min. after i.p. injection with a mixture of brominated flavones (0.6,1,3 mg/kg), FIG. 15; 2' chlorinated chrysin (1,3 mg/kg); FIG. 16; 2' fluorinated chrysin (3 mg/kg), FIG. 17; 6,8 dibromoflavone, FIG. 18. Data are expressed as medians (interquartile range) of (n) number of animals.

benzodiazepine receptor = assay: Competitive inhibition of 3H-flunitrazepam binding to benzodiazepine receptor (cerebral cortical membranes); design: species or system bovine
Experimental: (Competitive inhibition of H^3 -flunitrazepam to benzodiazepine receptor)
Binding of 3H-flunitrazepam (0.7 nM) to the benzodiazepine receptor was carried out in extensively washed cerebral cortical membranes.
H^3 -flunitrazepam has a Ki of […] to the benzodiazepine receptor.
IC50 values were obtained using flavonoids at different concentrations (10^-10 to 10^-3 M).
Structure - activity relationships of several flavonoids on
the ^3 H Flunitrazepam binding to bovine brain membranes.

benzodiazepine receptors = conditions: Medina et al. 1990; cited from earlier work
[7] = 1 mg/kg i.p., 20 min after injection

## O=c1cc(-c2ccccc2)oc2cc(O)cc(O)c12 [chrysin, 5,7-dihydroxyflavone]
[1]
  Anticonvulsant properties: anticonvulsant properties
Mice [2]; 3 mg/kg i.p.
  Time spent head-dipping: significant increase in the time spent head-dipping
Mice [2]; 10 mg/kg i.p.
  Sedative effects: did not elicit sedative effects
Mice [2]; i.p.
  Sedation (summary): did not exhibit sedation
[3]
  Noradrenaline decrease in locus coeruleus provoked by immobilization stress: dampened the noradrenaline decrease
  Potency vs diazepam on stress-provoked noradrenaline decrease: almost equipotent with diazepam
Mice [4]; [7]
  Percentage of entries in the open arms: increase in both parameters (p<0.01)
  Percentage of the time spent on the open arms: increase in both parameters (p<0.01)
  Total arm entries: 9.9 ± 0.8
Mice [4]; 3 mg/kg i.p., 20 min after injection
  Total arm entries: 8.7 ± 1.1
Mice [4]; 10 mg/kg i.p., 20 min after injection
  Total arm entries: 10.2 ± 1.1
Mice [4]; chrysin 1 mg/kg, RO 15-1788 3 mg/kg, F (2,49)=3.18
  Total arm entries, with and without RO 15-1788: No significant differences were found
Mice [4]; i.p.
  Anxiolytic effect in the elevated plus maze: had anxiolytic effects
Mice [4]; i.p., doses of Table I
  Total arm entries, difference from controls: No differences were observed
Mice [4]; i.p., listed as CHRY
  Anxiolytic effect in the elevated plus maze: displayed an anxiolytic effect
Mice [5]; 0.6-30 mg/kg i.p.
  Effect in horizontal wire test / muscle relaxant effect: ineffective in the same test and produced no muscle relaxant effect
Mice [5]; i.p.
  Muscle relaxation (summary): did not exhibit sedation or muscle relaxation
Mice [6]
  Locomotor activity: significant increase in locomotor activity
Benzodiazepine receptor
  Benzodiazepine ligand behaviour / affinity relative to 3H-flunitrazepam: benzodiazepine ligand behaviour similar to that of ^3 H-flunitrazepam
Benzodiazepine receptor; 3H-flunitrazepam 0.7 nM, read-out: IC50 at the benzodiazepine receptor
  IC50: 700 to 3000 nM
Benzodiazepine receptor; bovine brain membranes, 0.7 nM 3H-flunitrazepam, read-out: 3H Flunitrazepam binding IC50
  IC50: 2000 nM
Benzodiazepine receptors
  Binding properties for benzodiazepine receptors: binding properties for benzodiazepine receptors
